The record followed here is ChEMBL document CHEMBL5335807, “Rational design, synthesis and biological evaluation of novel HIV-1 protease inhibitors containing 2-phenylacetamide derivatives as P2 ligands with potent activity against DRV-Resistant HIV-1 variants” (Bioorg Med Chem Lett, 2024).

The target in assay [1] is Human immunodeficiency virus type 1 protease (Human immunodeficiency virus 1, UniProt Q72874). Put plainly: Inhibition of HIV-1 protease by fluorescence resonance energy transfer analysis.
Assay [2] concerns Human immunodeficiency virus 1. Nature of the assay: Antiviral activity against HIV-1 NL4-3 assessed as inhibition of viral growth. Format: functional, organism-based. The conditions noted are these: Human immunodeficiency virus 1, NL4-3.
The subject of assay [3] is Human immunodeficiency virus 1. Nature of the assay: Antiviral activity against DRV-resistant HIV-1 assessed as inhibition of viral growth by single-round infection assay. The class given is functional, organism-based. To be noted: Human immunodeficiency virus 1, DRV.
Assay [4] is described as follows: Resistance index, ratio of EC50 for antiviral activity against DRV-resistant HIV-1 to EC50 for antiviral activity against wild type HIV-1 NL4-3. Format: functional, Human immunodeficiency virus 1.

One may read the IC50 as the midpoint of a concentration-inhibition curve. As usually defined, the EC50 is the midpoint of the concentration-response curve.

In turn, `COc1ccc(CC(=O)N[C@@H](Cc2ccccc2)[C@H](O)CN(CC(C)C)S(=O)(=O)c2ccc(SC)cc2)cc1OC` yielded an IC50 in assay [1] of 171 nM. This lies in the sub-micromolar range.

Molecule `CSc1ccc(S(=O)(=O)N(CC(C)C)C[C@@H](O)[C@H](Cc2ccccc2)NC(=O)Cc2ccc(O)c(O)c2)cc1` returned a 50% inhibitory concentration (IC50) in assay [1] of 2.29 nM.

In assay [1], `COc1ccc(S(=O)(=O)N(CC(C)C)C[C@@H](O)[C@H](Cc2ccccc2)NC(=O)Cc2cccc(OC)c2)cc1` had an IC50 of 6.95 nM. In assay [1], `COc1ccc(S(=O)(=O)N(CC(C)C)C[C@@H](O)[C@H](Cc2ccccc2)NC(=O)Cc2ccc(OC)c(OC)c2)cc1` showed an IC50 of 85 nM.

For `COc1ccc(S(=O)(=O)N(CC(C)C)C[C@@H](O)[C@H](Cc2ccccc2)NC(=O)Cc2ccc(O)c(O)c2)cc1`, the results for the concentration giving a half-maximal response (EC50) in assay [2] and in assay [3] were 1860 nM and 23200 nM, respectively. Further, the IC50 in assay [1] was determined as 0.54 nM. Besides, the “Ratio EC50” value in assay [4] is on record as 12.5.

As for `COc1ccc(CC(=O)N[C@@H](Cc2ccccc2)[C@H](O)CN(CC(C)C)S(=O)(=O)c2ccc(SC)cc2)cc1`, in assay [1], the IC50 came out at 85.8 nM. Still for that read-out and setting: as for `CSc1ccc(S(=O)(=O)N(CC(C)C)C[C@@H](O)[C@H](Cc2ccccc2)NC(=O)Cc2ccc(O)cc2)cc1`, the figure is 4.2 nM. On the same count and under the same terms, the value for `COc1cc(CC(=O)N[C@@H](Cc2ccccc2)[C@H](O)CN(CC(C)C)S(=O)(=O)c2ccc(N)cc2)ccc1O` was 379 nM; that for `COc1cccc(CC(=O)N[C@@H](Cc2ccccc2)[C@H](O)CN(CC(C)C)S(=O)(=O)c2ccc(N)cc2)c1` was 35.1 nM. Take `COc1ccc(S(=O)(=O)N(CC(C)C)C[C@@H](O)[C@H](Cc2ccccc2)NC(=O)Cc2cccc(O)c2)cc1`: the EC50 in assay [2] was 1050 nM; in assay [3], 8850 nM. The same molecule returned an IC50 in assay [1] of 0.87 nM. In assay [4], the “Ratio EC50” value is recorded as 8.43. For `COc1ccc(CC(=O)N[C@@H](Cc2ccccc2)[C@H](O)CN(CC(C)C)S(=O)(=O)c2ccc(N)cc2)cc1O`, half-maximal inhibition in assay [1] (IC50) was put at 27.5 nM.

As for `CSc1ccc(S(=O)(=O)N(CC(C)C)C[C@@H](O)[C@H](Cc2ccccc2)NC(=O)Cc2cccc(O)c2)cc1`, the EC50 in assay [2] came to 940 nM; in assay [3], 2360 nM. In assay [1], this molecule returned an IC50 of 2.18 nM. Moreover, the “Ratio EC50” value in assay [4] is listed as 2.51.

As for `COc1ccc(S(=O)(=O)N(CC(C)C)C[C@@H](O)[C@H](Cc2ccccc2)NC(=O)Cc2ccc(O)cc2)cn1`, the IC50 in assay [1] is 7.26 nM. For `COc1ccc(CC(=O)N[C@@H](Cc2ccccc2)[C@H](O)CN(CC(C)C)S(=O)(=O)c2ccc(SC)cc2)cc1O`, the IC50 in assay [1] turned out to be 9.28 nM. The same measure, in the same setting: the value for `COc1ccc(CC(=O)N[C@@H](Cc2ccccc2)[C@H](O)CN(CC(C)C)S(=O)(=O)c2ccc(OC)cc2)cc1` was 21 nM; that for `COc1cccc(CC(=O)N[C@@H](Cc2ccccc2)[C@H](O)CN(CC(C)C)S(=O)(=O)c2ccc(SC)cc2)c1` was 30.4 nM; that for `COc1ccc(S(=O)(=O)N(CC(C)C)C[C@@H](O)[C@H](Cc2ccccc2)NC(=O)Cc2ccc(OC)c(O)c2)cc1` was 3.97 nM. In assay [1], `COc1ccc(S(=O)(=O)N(CC(C)C)C[C@@H](O)[C@H](Cc2ccccc2)NC(=O)Cc2ccc(O)c(OC)c2)cn1` yielded an IC50 of 170 nM. On to `COc1ccc(S(=O)(=O)N(CC(C)C)C[C@@H](O)[C@H](Cc2ccccc2)NC(=O)Cc2ccc(O)c(O)c2)cn1`, for which half-maximal inhibition in assay [1] (IC50) was put at 2.87 nM.

`COc1ccc(S(=O)(=O)N(CC(C)C)C[C@@H](O)[C@H](Cc2ccccc2)NC(=O)Cc2ccc(OC)c(OC)c2)cn1`: the 50% inhibitory concentration (IC50) in assay [1] turned out to be 176 nM. In turn, `COc1ccc(S(=O)(=O)N(CC(C)C)C[C@@H](O)[C@H](Cc2ccccc2)NC(=O)Cc2ccc(O)cc2)cc1` showed an IC50 in assay [1] of 2.22 nM. Against the preceding molecule, the IC50 is about 79-fold lower. As for `CC(C)CN(C[C@@H](O)[C@H](Cc1ccccc1)NC(=O)Cc1cccc(O)c1)S(=O)(=O)c1ccc(N)cc1`, in assay [1], 5.55 nM corresponded to half-maximal inhibition (IC50). Against the preceding molecule, the IC50 is about 2.5-fold higher.

For the molecule `COc1cccc(CC(=O)N[C@@H](Cc2ccccc2)[C@H](O)CN(CC(C)C)S(=O)(=O)c2ccc(OC)nc2)c1`, the IC50 in assay [1] was 12.5 nM. Turning to `CC(C)CN(C[C@@H](O)[C@H](Cc1ccccc1)NC(=O)Cc1ccc(O)cc1)S(=O)(=O)c1ccc(N)cc1`, the IC50 in assay [1] is 32 nM. In assay [1], `COc1ccc(S(=O)(=O)N(CC(C)C)C[C@@H](O)[C@H](Cc2ccccc2)NC(=O)Cc2ccc(O)c(OC)c2)cc1` yielded an IC50 of 50 nM. In assay [1], `CC(C)CN(C[C@@H](O)[C@H](Cc1ccccc1)NC(=O)Cc1ccc(O)c(O)c1)S(=O)(=O)c1ccc(N)cc1` gave an IC50 of 9.46 nM. `COc1cc(CC(=O)N[C@@H](Cc2ccccc2)[C@H](O)CN(CC(C)C)S(=O)(=O)c2ccc(SC)cc2)ccc1O` displayed an IC50 in assay [1] of 116 nM. On the same count and under the same terms, the value for `COc1ccc(CC(=O)N[C@@H](Cc2ccccc2)[C@H](O)CN(CC(C)C)S(=O)(=O)c2ccc(OC)nc2)cc1` was 51.8 nM; that for `COc1ccc(CC(=O)N[C@@H](Cc2ccccc2)[C@H](O)CN(CC(C)C)S(=O)(=O)c2ccc(N)cc2)cc1` was 377 nM.

On to `COc1ccc(S(=O)(=O)N(CC(C)C)C[C@@H](O)[C@H](Cc2ccccc2)NC(=O)Cc2cccc(O)c2)cn1`, for which the values for the EC50 in assay [2] and in assay [3] were 950 nM and 5020 nM, respectively. This molecule returned an IC50 in assay [1] of 1.2 nM. For the same molecule, the “Ratio EC50” value in assay [4] was 5.26. Regarding `COc1ccc(S(=O)(=O)N(CC(C)C)C[C@@H](O)[C@H](Cc2ccccc2)NC(=O)Cc2ccc(OC)c(O)c2)cn1`, the IC50 in assay [1] was 13 nM. With `COc1ccc(CC(=O)N[C@@H](Cc2ccccc2)[C@H](O)CN(CC(C)C)S(=O)(=O)c2ccc(N)cc2)cc1OC`, the IC50 in assay [1] is 1020 nM.
